{
  "source": "patent US12582652B2",
  "about": "“3-(ethoxydifluoromethyl)-6-(5-fluoro-6-(2,2,2-trifluoroethoxy)pyridin-3-yl)-[1,2,4]triazolo[4,3-a]pyrazine as an ion channel modulator” (Praxis Precision Medicines, Inc., priority 2022, dated 2026)",
  "key": {"[1]": {"test_system": "healthy participants", "test": "2-part Phase 1 trial (28 days; OXC combination): qEEG and ASSR pharmacodynamics", "format": "in vivo, human", "details": "Part A, 90 mg QD 28 days", "source_text": "(§3) This was a 2-part randomized, placebo-controlled Phase 1 trial in healthy participants aged 18-55 years. […] PD effects were examined on quantitative EEG (qEEG; resting and vigilant conditions) and stimulated EEG using auditory steady state response (ASSR). A total of 48 participants were enrolled; Part A, n=30; Part B, n=18."}, "[2]": {"test": "2-part Phase 1 trial (28 days; OXC combination): pharmacokinetics", "source_text": "as §3"}, "[3]": {"target": "T1, hNaV1.1 (Homo sapiens, UniProt P35498)", "test": "Peak INa tonic block, patch clamp", "format": "cell-based", "procedure": "(§1) Tonic Block (TB): Tonic Block (TB) protocols used low stimulation rates (about 0.1 Hz) and negative potentials (−120 mV) to keep channels in closed (resting) states. Pharmacology was measured during peak INa in response to step to 0 mV. No leak subtraction was used."}, "[4]": {"target": "T2, hNaV1.2 (Homo sapiens, UniProt Q99250)", "T2 sequence (Q99250 whole entry)": "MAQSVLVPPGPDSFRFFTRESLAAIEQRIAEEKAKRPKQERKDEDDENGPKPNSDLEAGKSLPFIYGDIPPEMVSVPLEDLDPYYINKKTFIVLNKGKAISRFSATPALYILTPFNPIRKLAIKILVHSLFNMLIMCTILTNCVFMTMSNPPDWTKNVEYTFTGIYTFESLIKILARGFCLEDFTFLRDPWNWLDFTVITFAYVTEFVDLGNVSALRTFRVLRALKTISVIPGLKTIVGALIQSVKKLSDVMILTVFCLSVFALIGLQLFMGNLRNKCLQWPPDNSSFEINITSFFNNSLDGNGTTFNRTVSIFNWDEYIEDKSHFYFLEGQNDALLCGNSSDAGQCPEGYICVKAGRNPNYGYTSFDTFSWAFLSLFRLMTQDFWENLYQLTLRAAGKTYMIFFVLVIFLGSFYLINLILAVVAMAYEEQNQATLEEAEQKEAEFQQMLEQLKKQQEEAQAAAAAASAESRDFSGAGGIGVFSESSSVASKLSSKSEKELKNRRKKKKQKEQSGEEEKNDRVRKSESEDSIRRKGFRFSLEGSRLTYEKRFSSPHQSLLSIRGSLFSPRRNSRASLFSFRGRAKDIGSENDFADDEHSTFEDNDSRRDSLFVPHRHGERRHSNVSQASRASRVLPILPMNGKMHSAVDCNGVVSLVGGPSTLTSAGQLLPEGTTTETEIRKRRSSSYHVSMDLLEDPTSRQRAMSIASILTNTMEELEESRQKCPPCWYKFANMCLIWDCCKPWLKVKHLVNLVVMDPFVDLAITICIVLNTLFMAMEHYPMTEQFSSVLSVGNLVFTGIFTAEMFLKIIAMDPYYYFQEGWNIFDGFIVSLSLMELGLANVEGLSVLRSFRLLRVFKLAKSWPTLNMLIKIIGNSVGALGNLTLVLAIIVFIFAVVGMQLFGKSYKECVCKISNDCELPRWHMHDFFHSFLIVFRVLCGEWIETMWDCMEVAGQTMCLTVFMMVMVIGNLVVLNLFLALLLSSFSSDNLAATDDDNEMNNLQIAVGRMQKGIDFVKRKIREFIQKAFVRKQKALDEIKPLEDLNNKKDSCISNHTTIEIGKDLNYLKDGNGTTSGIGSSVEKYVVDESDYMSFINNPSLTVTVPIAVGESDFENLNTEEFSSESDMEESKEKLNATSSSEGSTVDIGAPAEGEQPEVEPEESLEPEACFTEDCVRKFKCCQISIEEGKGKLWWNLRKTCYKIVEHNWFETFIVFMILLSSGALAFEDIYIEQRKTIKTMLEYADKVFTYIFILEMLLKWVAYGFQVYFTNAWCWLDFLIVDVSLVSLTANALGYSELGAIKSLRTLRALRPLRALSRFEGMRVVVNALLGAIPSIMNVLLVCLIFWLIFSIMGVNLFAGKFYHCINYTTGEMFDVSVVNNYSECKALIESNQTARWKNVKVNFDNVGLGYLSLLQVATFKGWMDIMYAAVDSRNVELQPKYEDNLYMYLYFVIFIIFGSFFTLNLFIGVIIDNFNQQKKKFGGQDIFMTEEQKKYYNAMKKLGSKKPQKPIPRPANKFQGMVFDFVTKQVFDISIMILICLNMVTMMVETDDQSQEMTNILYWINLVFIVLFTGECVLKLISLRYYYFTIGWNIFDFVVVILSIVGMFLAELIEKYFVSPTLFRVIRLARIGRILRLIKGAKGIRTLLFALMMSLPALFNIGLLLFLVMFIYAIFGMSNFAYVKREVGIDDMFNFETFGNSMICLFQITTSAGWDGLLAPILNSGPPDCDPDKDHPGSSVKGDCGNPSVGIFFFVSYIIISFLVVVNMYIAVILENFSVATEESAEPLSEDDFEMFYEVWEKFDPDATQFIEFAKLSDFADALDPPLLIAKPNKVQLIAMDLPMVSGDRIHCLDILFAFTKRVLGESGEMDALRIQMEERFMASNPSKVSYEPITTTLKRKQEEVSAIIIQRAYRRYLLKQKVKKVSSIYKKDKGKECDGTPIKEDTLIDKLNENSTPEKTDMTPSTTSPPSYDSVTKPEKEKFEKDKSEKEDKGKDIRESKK", "test": "Peak INa tonic block, patch clamp", "format": "cell-based", "procedure": "as §1"}, "[5]": {"target": "T3, hNaV1.5 (Homo sapiens, UniProt Q14524)", "T3 sequence (Q14524 1-2015 isoform Q14524-2)": "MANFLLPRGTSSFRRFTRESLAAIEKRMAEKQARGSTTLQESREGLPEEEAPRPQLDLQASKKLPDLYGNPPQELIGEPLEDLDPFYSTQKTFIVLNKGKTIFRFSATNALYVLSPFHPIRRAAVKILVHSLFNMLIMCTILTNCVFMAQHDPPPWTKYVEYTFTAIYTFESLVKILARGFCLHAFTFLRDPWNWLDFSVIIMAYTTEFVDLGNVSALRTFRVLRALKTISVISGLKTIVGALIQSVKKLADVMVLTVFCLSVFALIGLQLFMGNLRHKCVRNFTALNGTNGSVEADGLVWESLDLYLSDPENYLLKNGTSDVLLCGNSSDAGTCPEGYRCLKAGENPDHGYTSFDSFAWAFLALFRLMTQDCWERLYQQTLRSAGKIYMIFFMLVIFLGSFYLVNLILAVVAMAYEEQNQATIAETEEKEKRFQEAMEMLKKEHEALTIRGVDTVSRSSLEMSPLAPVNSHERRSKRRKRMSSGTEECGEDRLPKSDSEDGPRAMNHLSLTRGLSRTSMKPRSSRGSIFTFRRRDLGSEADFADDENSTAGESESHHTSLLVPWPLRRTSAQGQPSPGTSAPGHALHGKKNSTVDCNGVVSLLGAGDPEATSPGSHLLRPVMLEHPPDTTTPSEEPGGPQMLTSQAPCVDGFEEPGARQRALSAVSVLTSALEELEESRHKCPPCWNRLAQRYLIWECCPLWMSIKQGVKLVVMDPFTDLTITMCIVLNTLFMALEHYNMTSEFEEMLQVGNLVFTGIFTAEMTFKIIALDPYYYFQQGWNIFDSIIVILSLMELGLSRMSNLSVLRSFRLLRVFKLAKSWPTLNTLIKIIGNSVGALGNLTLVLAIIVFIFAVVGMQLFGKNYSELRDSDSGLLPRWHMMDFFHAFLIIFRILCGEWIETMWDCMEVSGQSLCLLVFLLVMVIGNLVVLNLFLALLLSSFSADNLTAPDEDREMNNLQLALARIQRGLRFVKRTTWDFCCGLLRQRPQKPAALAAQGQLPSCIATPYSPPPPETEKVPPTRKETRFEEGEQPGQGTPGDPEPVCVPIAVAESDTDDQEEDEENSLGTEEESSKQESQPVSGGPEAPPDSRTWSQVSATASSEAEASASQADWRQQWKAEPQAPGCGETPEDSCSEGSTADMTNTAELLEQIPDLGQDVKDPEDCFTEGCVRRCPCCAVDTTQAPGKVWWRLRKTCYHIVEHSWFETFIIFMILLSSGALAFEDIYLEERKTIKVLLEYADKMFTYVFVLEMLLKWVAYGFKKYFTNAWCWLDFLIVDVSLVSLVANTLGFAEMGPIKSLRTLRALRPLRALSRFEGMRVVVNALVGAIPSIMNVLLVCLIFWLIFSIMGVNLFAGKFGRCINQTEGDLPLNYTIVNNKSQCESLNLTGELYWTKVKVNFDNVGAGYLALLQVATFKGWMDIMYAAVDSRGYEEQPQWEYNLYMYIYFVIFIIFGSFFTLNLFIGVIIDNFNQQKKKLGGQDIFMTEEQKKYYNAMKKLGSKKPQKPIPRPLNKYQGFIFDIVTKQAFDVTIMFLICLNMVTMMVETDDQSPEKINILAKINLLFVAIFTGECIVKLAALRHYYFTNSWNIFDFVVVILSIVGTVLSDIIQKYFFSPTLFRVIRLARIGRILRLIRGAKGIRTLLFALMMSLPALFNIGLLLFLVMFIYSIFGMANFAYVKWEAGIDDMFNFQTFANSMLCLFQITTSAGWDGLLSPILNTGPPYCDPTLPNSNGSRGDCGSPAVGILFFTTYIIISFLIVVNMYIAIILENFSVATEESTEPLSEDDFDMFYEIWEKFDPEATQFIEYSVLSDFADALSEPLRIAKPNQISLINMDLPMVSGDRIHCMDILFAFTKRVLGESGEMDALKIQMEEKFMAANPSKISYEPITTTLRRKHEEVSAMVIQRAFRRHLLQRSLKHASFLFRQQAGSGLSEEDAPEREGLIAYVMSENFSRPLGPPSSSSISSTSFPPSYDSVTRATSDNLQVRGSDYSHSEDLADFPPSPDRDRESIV", "test": "Peak INa tonic block, patch clamp", "format": "cell-based", "procedure": "as §1"}, "[6]": {"target": "T4, hNaV1.6-N1768D (Homo sapiens, UniProt Q9UQD0, N1768D)", "T4 construct": "expressed in transfected cells", "test": "Persistent INa expressed by DEE mutant channel, patch clamp", "format": "cell-based", "details": "hNaV1.6-N1768D DEE mutant"}, "[7]": {"test_system": "Scn8a^N1768D/+ transgenic mouse", "test": "Audiogenic induced seizures in Scn8a N1768D/+ mouse model", "format": "in vivo", "procedure": "Both male and female N1768D (D/+) mice, 8-12 weeks old, were used in the study. Compound 1 was administered orally (p.o.) at three doses (1 mg/kg, 3 mg/kg, 10 mg/kg) and also vehicle 1 hour prior to testing. The mice were randomized such that at the completion of the study each individual mouse had been evaluated at each test dose of Compound 1 and vehicle. A minimum of 3 days was allowed to elapse before retesting the mice. At the time of testing, mice were taken from their home cage and transferred to a clean test cage located in a separate testing room where they were allowed to acclimate for about 20 seconds before the onset of the acoustic stimulus. To induce audiogenic seizures, a 15 kHz signal was generated using Tone Generator software (NCH Software, Inc.), amplified using a Kinter K3118 stereo amplifier (Kinter USA), and converted to sound using a small 3-watt speaker lowered into the testing chamber. The stimulus was applied for 30 seconds unless a seizure was detected before the 30-second time point, in which case the audiogenic stimulus was terminated. Videos of the event were recorded using a laptop webcam. On the final day of testing, brains and plasma were collected from the D/+ mice immediately after audiogenic seizure testing to determine concentrations of Compound 1. A separate cohort of 8 age-matched WT mice were also included (n=2/dose level) to achieve a sample size of n=4 for PK for each dose level. Brain and plasma specimens were submitted for bioanalytical analysis."}, "[8]": {"test": "Preliminary exposure data from first 12 participants (Example 9 study)", "format": "in vivo, human"}, "[9]": {"test_system": "healthy participants", "test": "Phase 1 SAD/MAD/food effect trial: safety and tolerability", "format": "in vivo, human", "procedure": "This was a 3-part Phase 1 clinical trial in healthy participants aged 18-55 years. Parts A and B were randomized, placebo-controlled and evaluated the effects of single (2.5-150 mg) and multiple (30-120 mg, 14 days QD (every day)) ascending oral doses of Compound 1, respectively. Part C was an open-label, randomized, crossover design evaluating the PK of a single oral dose (90 mg) in fasted and fed states. In Parts A (n=64) and B (n=32), participants were randomized 3:1 to Compound 1 or placebo (n=8/cohort). In Part C (n=16), participants were randomized 1:1 to one of two treatment sequences receiving a single dose of 90 mg Compound 1 in the fed (following a high-fat/high calorie meal) or fasted (≥10 hours after the last, and 4 hours before the next, meal) state."}, "[10]": {"target": "T1, hNaV1.1", "test": "Persistent INa, patch clamp", "format": "cell-based", "procedure": "(§2) Late (persistent) current Block: The inhibition of ATX-II activated late current was measured using a 200 ms voltage step to 0 mV. Protocols used low stimulation rates (about 0.1 Hz) and negative potentials (−120 mV) to keep channels in closed (resting) states. Pharmacology was measured as the mean INa during the final 20 ms of the step to 0 mV and leak subtraction was not used."}, "[11]": {"target": "T2, hNaV1.2", "test": "Persistent INa, patch clamp", "format": "cell-based", "procedure": "as §2"}, "[12]": {"target": "T3, hNaV1.5", "test": "Persistent INa, patch clamp", "format": "cell-based", "procedure": "as §2"}, "[13]": {"test_system": "healthy participants", "test": "2-part Phase 1 trial (28 days; OXC combination): safety and tolerability", "format": "in vivo, human", "source_text": "as §3"}},
  "note": "“Also recorded” adds a separate entry of the source.",
  "data": [
    {"smiles": "CCOC(F)(F)c1nnc2cnc(-c3cnc(OCC(F)(F)F)c(F)c3)cn12", "note": "[Compound 1, 3-(ethoxydifluoromethyl)-6-(5-fluoro-6-(2,2,2-trifluoroethoxy)pyridin-3-yl)-[1,2,4]triazolo[4,3-a]pyrazine]", "values": [
      {"measurement": "qEEG (Delta and Theta power) and ASSR (PLF and Evoked Power) vs placebo", "setting": "[1]", "result": "Statistically significant differences"},
      {"measurement": "approach to steady state", "setting": "[2]; 90 mg QD for 28 days, Part A", "result": "approached steady state"},
      {"measurement": "increase in Compound 1 concentrations over human-equivalent dose required for efficacy in preclinical MES models", "setting": "[2]; Part A, 90 mg QD", "result": 13, "unit": "fold"},
      {"measurement": "Compound 1 exposure with OXC coadministration", "setting": "[2]; Part B, data not shown", "result": "did not appear to be altered"},
      {"measurement": "IC50", "setting": "[3]", "result": 18900, "unit": "nM"},
      {"measurement": "preference for persistent INa over peak INa tonic block", "setting": "[3]", "result": 173, "unit": "fold"},
      {"measurement": "IC50", "setting": "[4]", "result": 13700, "unit": "nM"},
      {"measurement": "preference for persistent INa over peak INa tonic block", "setting": "[4]", "result": 80, "unit": "fold"},
      {"measurement": "preference for persistent INa over peak INa tonic block", "setting": "[5]", "result": "> 174", "unit": "fold"},
      {"measurement": "peak INa tonic block inhibition", "setting": "[5]; at 30 000 nmol/L", "result": 12, "unit": "%"},
      {"measurement": "IC50", "setting": "[6]", "result": 75, "unit": "nM"},
      {"measurement": "protection from audiogenic seizures", "setting": "[7]; 10 mg/kg p.o.", "result": "complete protection"},
      {"measurement": "inhibition of audiogenic seizures", "setting": "[7]; 1, 3, 10 mg/kg p.o., 1 hour prior to testing", "result": "dose dependent inhibition"},
      {"measurement": "protection from seizures (FIG. 14B)", "setting": "[7]; Scn8a N1768D DEE mouse model", "result": "completely block seizures"},
      {"measurement": "Compound 1 exposures on Day 1 (after single dose)", "setting": "[8]", "result": "above therapeutic range; also recorded: above predicted therapeutic levels"},
      {"measurement": "exposure after 28 days of once daily dosing and auto-titration", "setting": "[8]", "result": "approaching steady-state; also recorded: approaches steady state"},
      {"measurement": "TEAEs that were mild", "setting": "[9]; healthy participants", "result": "> 92", "unit": "%"},
      {"measurement": "safety findings in vital signs, clinical laboratory results, physical exams, ECGs, C-SSRS", "setting": "[9]; healthy participants", "result": "no clinically significant safety findings"},
      {"measurement": "participants experiencing typical NaV blocker events", "setting": "[9]; more frequent at 120 mg and 150 mg", "result": 34, "unit": "%"},
      {"measurement": "tolerability in healthy participants", "setting": "[9]; single doses up to 150 mg, up to 120 mg QD 14 days, 90 mg fed and fasted", "result": "well-tolerated; also recorded: well tolerated"},
      {"measurement": "IC50", "setting": "[10]", "result": 109, "unit": "nM"},
      {"measurement": "IC50", "setting": "[11]", "result": 172, "unit": "nM"},
      {"measurement": "IC50", "setting": "[12]", "result": 172, "unit": "nM"},
      {"measurement": "tolerability in healthy adults", "setting": "[13]; 90 mg, Part A", "result": "well tolerated"},
      {"measurement": "TEAEs mild in severity", "setting": "[13]; Part A", "result": 71, "unit": "%"},
      {"measurement": "TEAEs moderate", "setting": "[13]; Part A", "result": 29, "unit": "%"},
      {"measurement": "TEAEs severe", "setting": "[13]; Part A", "result": 0, "unit": "%"},
      {"measurement": "number of TEAEs", "setting": "[13]; Part A", "result": 35},
      {"measurement": "participants with TEAEs", "setting": "[13]; Part A (n=30 enrolled)", "result": 13},
      {"measurement": "TEAEs mild or moderate", "setting": "[13]; Part A, 90 mg QD vs placebo", "result": 100, "unit": "%"},
      {"measurement": "review of ALT/AST increases and rhabdomyolysis, causal association", "setting": "[13]; Part B", "result": "did not identify a causal association"},
      {"measurement": "TEAEs mild or moderate", "setting": "[13]; Part B, OXC + 120 mg Compound 1 vs OXC alone", "result": 96, "unit": "%"},
      {"measurement": "TEAEs mild in severity", "setting": "[13]; Part B, both arms", "result": 51, "unit": "%"},
      {"measurement": "TEAEs moderate", "setting": "[13]; Part B, both arms", "result": 45, "unit": "%"},
      {"measurement": "TEAEs severe", "setting": "[13]; Part B, both arms", "result": 4, "unit": "%"},
      {"measurement": "number of TEAEs", "setting": "[13]; Part B, both arms", "result": 74},
      {"measurement": "participants with TEAEs", "setting": "[13]; Part B, both arms (n=18 enrolled)", "result": 16},
      {"measurement": "safety findings in vital signs, physical exams, ECGs, C-SSRS", "setting": "[13]; Parts A and B", "result": "no clinically significant safety findings"}
    ]}
  ]
}
